Results from article doi:10.1101/2024.08.30.610474v2 (biorxiv, 2025).

Test system: honeyeater HK3 (hexokinase 3)
Assay: hexokinase activity assay kit
Format: biochemical, Phylidonyris novaehollandiae
Conditions: 25 °C; 200 nM enzyme; glucose 0.009375-1 mM; substrate inhibition

Which Km does the source give for `OC[C@H]1OC(O)[C@H](O)[C@@H](O)[C@@H]1O` (stereo partly shown) [glucose] here?
Its Km is 65.9 µM.
